From article PMC8404199, “Structure–Activity Relationships of Triple-Action Platinum(IV) Prodrugs with Albumin-Binding Properties and Immunomodulating Ligands” (Journal of Medicinal Chemistry, 2021)
Where two headings read alike, the source gives them in different places.

Assays:
IDO = experiment: LC-HRMS of 1-MDT and Trp metabolites in tumor tissue; format: in vivo, mice; settings: 24 h after treatment
Method: To 50 mg of tumor tissue, 50 μL of fully ^13C internal standard (labeled yeast extract prepared in 2 mL of H2O; ISOtopic solutions e.U., Vienna, Austria) and 950 μL of 80% MeOH (LC–MS grade, Sigma-Aldrich, Vienna, Austria) were added and homogenized in a Dounce-type glass tissue grinder. The homogenate was collected, the tissue homogenizer was washed twice with 400 μL 80% MeOH (LC–MS grade, Sigma-Aldrich, Vienna, Austria), and the washing solution was added to the homogenate. The samples were vortexed, centrifuged (14,000g, 4 °C, 20 min), and kept on dry ice until further processing. 500 μL of tumor sample aliquots was dried for direct LC–HRMS analysis.
All samples were resuspended in 100 μL of water (supernatant sample: same volume; tumor samples 5-fold concentration) and measured using a 12 min method based on reversed-phase chromatography (column: HSS T3, 1.8 μm, 2.1 × 150 mm, Waters) and high-resolution mass spectrometry (Orbitrap HF, Thermo). For quantification, multi-point calibration with external standard mixes (Kyn, Trp, and kynurenic acid) using co-eluting ^13C internal standards was performed and analyzed by Skyline 20.2.0.286. For 1-MDT, relative quantification based on ^13C Trp normalization was performed.

[1] = system: CT26 colon cancer allografts; experiment: Anticancer activity against CT26 allografts in Balb/c mice; format: in vivo; settings: iv, equimolar to 9 mg/kg oxaliplatin, twice a week for 2 weeks
Method: Every day, the animals were monitored for body weight and the enhanced stress level, and the tumor size was measured using a caliper according to the formula length × width^2/2.

[2] = Organ distribution of platinum in SKOV3-bearing SCID mice; settings: 24 h after single iv dose equimolar to 9 mg/kg oxaliplatin; for Platinum ratio tumor:kidney / Platinum ratio tumor:liver: ratio of mean platinum levels
Method: For tissue digestion, approx. 25–50 mg of tissue was weighed into perfluoralkoxy tubes, and 2 mL of HNO3 and 100 μL H2O2 (30%, Suprapur, Merck, Darmstadt, Germany) were added. The solutions were placed on a hot plate and heated up for 7 h using a temperature program with a maximum of 200 °C. The liquids were transferred to 15 mL tubes with the remaining solution being removed by washing twice with 4 mL of ultrapure water.
Platinum concentrations were measured using an Agilent 7800 ICP-QMS instrument (Agilent Technologies, Tokyo, Japan) equipped with an Agilent SPS 4 autosampler (Agilent Technologies, Tokyo, Japan) and a MicroMist nebulizer at a sample uptake rate of approx. 0.2 mL/min. […] All of the measured samples were blank corrected (for the cell culture data, wells containing no cells were used). Elemental standard solutions were purchased from Labkings (Hilversum, The Netherlands). The instrument was tuned on a daily basis.
SKOV3 cells (1.5 × 10^6 cells in 50 μL serum-free medium) were injected subcutaneously into the right flank of male SCID mice. […] Then, the animals were sacrificed by cervical dislocation, and tumors and organs were collected for the measurement with ICP–MS. For plasma isolation, blood was collected in ethylenediaminetetraacetic acid (EDTA)-coated tubes and centrifuged for 10 min at 900g at 4 °C. Plasma was transferred to a new tube and centrifuged once more to remove residual red blood cells.

[3] = system: tumor-infiltrating T-cell populations; experiment: Flow cytometry of T-cell populations in CT26 tumors and tumor-draining lymph nodes; format: in vivo, Balb/c mice; settings: 24 h after single iv treatment equimolar to 9 mg/kg oxaliplatin
Method: CT26 cells (5 × 10^5 cells in 50 μL of serum-free RPMI medium) were injected into the right flank of female Balb/c mice (n = 4 per group). On day 7, when the tumors reached a mean tumor volume of ∼170 mm^3, mice were treated once iv with MalEs/IdoCa at a concentration equimolar to 9 mg/kg (dissolved in 20% PG in PBS) or solvent only. After 24 h, the animals were sacrificed, and tumor tissues and the tumor-draining lymph nodes were isolated. Tissues were collected in a tube with 750 μL of ice-cold PBS containing 5% FBS and cut into small pieces. Samples were digested using PBS containing 50 mg/mL collagenase (C2139, Merck, Darmstadt, Germany) and 50 mg/mL DNase I (DN25, Darmstadt, Germany) and filtered several times through a 70 μm cell strainer (734-2761, VWR, Pennsylvania, USA). The samples were centrifuged, and cell pellets were treated with ammonium–chloride–potassium (ACK)-buffer (150 mM NH4Cl, 10 mM KHCO3, 127 μM EDTA, pH 7.2–7.4) to lyse red blood cells and centrifuged in a Würzburg buffer (PBS containing 5% FBS, 5 mM EDTA, 20 μg/mL DNase I).
Cells were washed with PBS and stained using the Aqua Zombie Fixable Viability Kit (423101, BioLegend, California, USA), according to the manufacturer’s instructions. […] The cleaned up data were analyzed using the gating strategy, as shown in Figure S15 for murine tissue and Figure S16 for human co-culture experiment.

[4] = UHPLC reduction experiments with L-ascorbic acid; format: physicochemical; settings: 1 mM complex, 10 mM AA, pH 7.4, 20 °C
Method: The platinum(IV)–succinimide complexes were dissolved in 2% DMF in phosphate buffer (500 mM, pH 7.4) to a final concentration of 2 mM. The solutions were then mixed 1:1 with a 20 mM stock of L-ascorbic acid in phosphate buffer (500 mM, pH 7.4) to obtain final concentrations of 1 mM complex, 10 mM L-ascorbic acid, and 1% DMF. The samples were incubated at 20 °C and measured on a Dionex UltiMate 3000 RS UPLC system with a Waters Acquity UPLC BEH C18 column (3 × 50 mm, pore size 1.7 μm) and absorption detection at 220 nm. Data points were taken at t = 0 and every 30 min for 6 h.

[5] = UHPLC reduction kinetics with dithiothreitol; format: physicochemical; settings: 1 mM complex, 10 mM DTT, 1% DMF, 500 mM phosphate buffer pH 7.4, 20 °C
Method: Figure S 3: Reduction kinetics of reference compounds with AA at 20°C , measured by UHPLC and UV absorption at 220 nm. A: Comparison of OAc/IPAEs with amino -group containing SucCa/IdoEs; B:
Reductive stability of reference compounds with no 1MDT -like ligand. AUC-values were normalized to t = 0. Experimental conditions: 1 mM complex, 10 mM AA in 1% DMF and 500 mM phosphate buffer […]
conditions: 1 mM complex, 10 mM DTT in 1% DMF and 500 mM phosphate buffer (pH 7.4). […]

[6] = system: murine CT26 colon cancer cells; experiment: MTT cytotoxicity assay in CT26 cells; format: cell-based
Method: (§1) Cells were additionally incubated with 5-fold equimolar concentrations of ascorbic acid to increase the reduction rate of the compounds. Cell viability was measured by the MTT-based vitality assay (EZ4U; Biomedica, Vienna, Austria), following the manufacturer’s recommendations.

[7] = system: human HCT116 colon cancer cells; experiment: MTT cytotoxicity assay in HCT116 cells; format: cell-based
Method: as §1

[8] = system: human embryonic kidney cells (HEK293); experiment: MTT cytotoxicity assay in non-malignant HEK293 cells; format: cell-based; settings: 72 h
Method: (§2) The cells were seeded at 3500–6000 cells/well in 96-well plates depending on the proliferation rate of the respective cell line and allowed to recover for 24 h. Subsequently, the cells were treated at indicated concentrations for 48 or 72 h. Cells were additionally incubated with 5-fold equimolar concentrations of ascorbic acid to increase the reduction rate of the compounds. Cell viability was measured by the MTT-based vitality assay (EZ4U; Biomedica, Vienna, Austria), following the manufacturer’s recommendations.

[9] = system: human hepatic cell line (WRL68); experiment: MTT cytotoxicity assay in non-malignant WRL68 cells; format: cell-based; settings: 72 h
Method: as §2

human SKOV3 cancer cells = experiment: MTT cytotoxicity assay in SKOV3 cells; format: cell-based; settings: 72 h incubation, with 5 eq. AA; read-out: SKOV3 IC50 values + 5 eq. AA, mean
Method: as §2

[10] = system: VM7 melanoma cancer cells; experiment: MTT cytotoxicity assay in VM7 cells; format: cell-based, human; settings: 72 h
Method: as §2

SKOV3 cancer cells = experiment: Long-term cytotoxicity assay (crystal violet) in SKOV3 cells; format: cell-based, human; settings: 168 h, crystal violet stain, mean ± SD
Method: SKOV3 cells were seeded in duplicates at 5000 cells/well in 24-well plates and allowed to recover for 24 h. Subsequently, the cells were treated at the indicated concentrations for 168 h. Cells were fixed with ice-cold methanol (20 min at 4 °C), washed with PBS, and stained with crystal violet. Subsequently, colony formation was inspected, and the fluorescence signal was detected using Typhoon Trio imager (GE Healthcare, Little Chalfont, UK) at 610/30 nm BP and analyzed by ImageJ software.

HCT116 cells = experiment: Cellular platinum levels in HCT116 cells by ICP-MS; format: cell-based, human; settings: HCT116, 20 μM, 3 h incubation
Method: HCT116 cells were seeded at 6 × 10^5 cells/well in a six-well plate and allowed to settle for 24 h. Cells were exposed to drugs at 20 μM for 3 h under normal cell culture conditions. Cells were washed twice with PBS and lysed at RT in 500 μL HNO3 (≥69%, Rotipuran Supra, Carl Roth, Karlsruhe, Germany) for 1 h. 400 μL of the lysate was transferred to 7.6 mL of ultrapure water (18.2 MΩ cm, Milli-Q Advantage, Darmstadt, Germany).
The instrument was tuned on a daily basis.

Cn1cc(C[C@@H]([NH3+])C(=O)[O][Pt]2([O]C(=O)NCCCCCN3C(=O)C=CC3=O)[O]C(=O)C(=O)[O]2)c2ccccc21.N[C@@H]1CCCC[C@H]1N.O=C([O-])C(F)(F)F [MalCa/IdoEs, (OC-6-34)-[(R)-2-Ammonio-3-(1-methyl-1H-indol-3-yl)propanoato][(1R,2R)-1,2-cyclohexanediamino][5-(2,5-dioxo-2,5-dihydro-1H-pyrrol-1-yl)pentylcarbamato]oxalatoplatinum(IV) Trifluoroacetate]
kynurenic acid in tumors (in words) (IDO): enhanced signals | anticancer activity against CT26 tumors (in words) [1]: significant anticancer activity | platinum levels in blood plasma [2]: 1.9 mg/kg | Platinum ratio tumor:kidney [2]: 0.6 | Platinum ratio tumor:liver [2]: 0.6

Cn1cc(C[C@@H](NC(=O)[O][Pt]2([O]C(=O)CCCCCN3C(=O)C=CC3=O)[O]C(=O)C(=O)[O]2)C(=O)O)c2ccccc21.N[C@@H]1CCCC[C@H]1N [MalEs/IdoCa, (OC-6-34)-[(R)-(1-Carboxy-2-(1-methyl-1H-indol-3-yl)ethyl)carbamato][(1R,2R)-1,2-cyclohexanediamino][6-(2,5-dioxo-2,5-dihydro-1H-pyrrol-1-yl)hexanoato]oxalatoplatinum(IV)]
IDO activity in tumor, Trp to Kyn ratio (in words) (IDO; compared to solvent- or MalCa/IdoEs-treated animals): inhibition of IDO activity indicated by an improved Trp to Kyn ratio | 1-MDT levels in tumor, fold higher than upon MalCa/IdoEs treatment (IDO; SKOV3 tumor tissue): ~2 fold | anticancer activity against CT26 tumors (in words) [1]: activity comparable to MalCa/IdoCa | immune cell population in tumor-draining lymph nodes [3]: no effect | ratio of CD4+ to CD8+ T cells in the malignant tissue [3]: significant shift | plasma platinum concentration, fold higher than oxaliplatin or OAc/OAc [2]: ~12 fold | platinum levels in blood plasma [2]: 5.9 mg/kg | Platinum ratio tumor:kidney [2]: 1.2 | Platinum ratio tumor:liver [2]: 0.7

CC(=O)[O][Pt]12([O]C(=O)CCc3cn(C)c4ccccc34)([NH]C3CCCCC3[NH]1)[O]C(=O)C(=O)[O]2 [OAc/IPAEs, (OC-6-44)-Acetato[(1R,2R)-1,2-cyclohexanediamino][3-(1-methyl-1H-indol-3-yl)propanoato]oxalatoplatinum(IV)]
reduction kinetics with AA (in words) [4]: comparable reduction kinetics to the carbamate-linked complexes | reduction in the presence of dithiothreitol (in words) [5]: stable under these conditions

O=C1[O][Pt]2([NH][C@@H]3CCCC[C@H]3[NH]2)[O]C1=O [oxaliplatin, reference compound]
IC50 ([6]; 48 h incubation, with 5 equiv AA, read-out: CT26 IC50 values +AA, mean ± SD): 1530 ± 250 nM | IC50 ([6]; 48 h incubation, without AA, read-out: CT26 IC50 values, mean ± SD): 1500 ± 390 nM | IC50 ([6]; 72 h incubation, with 5 eq. AA, read-out: CT26 IC50 values + 5 eq. AA, mean): 2110 nM | IC50 ([6]; 72 h incubation, without AA, read-out: CT26 IC50 values, mean): 1900 nM | IC50 ([7]; 48 h incubation, with 5 equiv AA, read-out: HCT116 IC50 values +AA, mean ± SD): 670 ± 10 nM | IC50 ([7]; 48 h incubation, without AA, read-out: HCT116 IC50 values, mean ± SD): 720 ± 10 nM | IC50 ([7]; 72 h incubation, with 5 eq. AA, read-out: HCT116 IC50 values + 5 eq. AA, mean): 740 nM | IC50 ([7]; 72 h incubation, without AA, read-out: HCT116 IC50 values, mean): 760 nM | IC50 [8]: 2100 nM | IC50 [9]: 8.35 µM | IC50 (human SKOV3 cancer cells): 43.4 µM | IC50 [10]: 3.94 µM | IC50 (SKOV3 cancer cells): 6.2 ± 1.1 µM | cellular platinum uptake (in words) (HCT116 cells): taken up by the cells much more efficiently than any of the platinum(IV) prodrugs
